Source: patent publication US5192781A, “Thiazole derivatives which are angiotensin II receptor antagonists, their methods of preparation and pharmaceutical compositions in which they are present” (Laboratoires UPSA, priority 1991, dated 1993)

System: rat adrenal angiotensin II receptors
Assay: displacement of radioligand [^125 I]-SIAII specifically bound to rat adrenal angiotensin II receptors
Assay type: binding
Conditions: 60 min at 25° C.
Experimental: The affinity of the products of the Examples for angiotensin II receptors is evaluated by the technique of displacing a radioligand specifically bound to rat adrenal angiotensin II receptors.
An aliquot of a rat adrenal gland homogenate incubates in the presence of a single concentration of [^125 I]-SIAII (Sar^1,Tyr^4,Ile^8 -angiotensin II), which is an angiotensin II receptor antagonist, and two concentrations of competing agents (10^-5 M, 10^-7 M) for 60 min at 25° C.
The reaction is completed by the addition of a buffer, followed by rapid filtration through glasspaper filters. The non-specific binding is determined in the presence of angiotensin II.
The results are expressed, for the concentrations tested, as the percentage displacement of the radioligand specifically bound to the adrenal angiotensin II receptors.

Cc1nc(C)c(Cc2ccc(NC(=O)c3ccccc3C(=O)O)cc2)s1 [Example 4, 2-[4-((2,4-Dimethylthiazol-5-yl)methyl)phenylaminocarbonyl]benzoic acid]
% displacement of the labeled ligand (1E-5M competing agent, 10 µM): 58% | % displacement of the labeled ligand (1E-7M competing agent, 0.1 µM): 0%

CCOC(=O)CNc1nc(C)c(Cc2ccc(NC(=O)c3ccccc3C(=O)O)cc2)s1 [Example 7, Ethyl (4-methyl-5-(4-(2-carboxybenzoylamino)benzyl)thiazol-2-yl)aminoacetate]
% displacement of the labeled ligand (1E-5M competing agent, 10 µM): 35% | % displacement of the labeled ligand (1E-7M competing agent, 0.1 µM): 0%

CCCc1nc(C)sc1Cc1ccc(NC(=O)c2ccccc2S(=O)(=O)O)cc1 [Example 11, 2-[4-(2-methyl-4-propylthiazol-5-ylmethyl)phenylaminocarbonyl]benzosulfonic acid]
% displacement of the labeled ligand (1E-5M competing agent, 10 µM): 94% | % displacement of the labeled ligand (1E-7M competing agent, 0.1 µM): 59%

CCCc1nc(SCCCC(=O)OCC)sc1Cc1ccc(NC(=O)c2ccccc2S(=O)(=O)O)cc1 [Example 15, Ethyl 4-[[4-propyl-5-(4-(2-sulfobenzoylamino)benzyl)thiazol-2-yl]mercapto]butyrate]
% displacement of the labeled ligand (1E-5M competing agent, 10 µM): 79% | % displacement of the labeled ligand (1E-7M competing agent, 0.1 µM): 0%

CCCc1nc(COC)sc1Cc1ccc(NC(=O)c2ccccc2S(=O)(=O)O)cc1 [Example 19, 2-[4-(2-Methoxymethyl-4-propylthiazol-5-yl-methyl)phenylaminocarbonyl]benzosulfonic acid]
% displacement of the labeled ligand (1E-5M competing agent, 10 µM): 89% | % displacement of the labeled ligand (1E-7M competing agent, 0.1 µM): 55%

CCCc1nc(NCC(=O)OC)sc1Cc1ccc(NC(=O)c2ccccc2S(=O)(=O)O)cc1 [Example 22, Methyl (4-propyl-5-(4-(2-sulfobenzoylamino)benzyl)thiazol-2-yl)aminoacetate]
% displacement of the labeled ligand (1E-5M competing agent, 10 µM): 89% | % displacement of the labeled ligand (1E-7M competing agent, 0.1 µM): 5%

CCCc1nc(CC(=O)OC)sc1Cc1ccc(NC(=O)c2ccccc2S(=O)(=O)O)cc1 [Example 26, 2-[4-(2-methoxycarbonylmethyl-4-propylthiazol-5-ylmethyl)phenylaminocarbonyl]benzosulfonic acid]
% displacement of the labeled ligand (1E-5M competing agent, 10 µM): 86% | % displacement of the labeled ligand (1E-7M competing agent, 0.1 µM): 22%

CCCc1nc(CNC(=O)OCC)sc1Cc1ccc(NC(=O)c2ccccc2S(=O)(=O)O)cc1 [Example 30, 2-[4-(2-Ethoxycarbonylaminomethyl-4-propylthiazol-5-ylmethyl)phenylaminocarbonyl]benzosulfonic acid]
% displacement of the labeled ligand (1E-5M competing agent, 10 µM): 84% | % displacement of the labeled ligand (1E-7M competing agent, 0.1 µM): 29%

CCCc1nc(N)sc1Cc1ccc(NC(=O)c2ccccc2S(=O)(=O)O)cc1 [Example 33, 2-[4-(2-Amino-4-propylthiazol-5-ylmethyl)phenylaminocarbonyl]benzosulfonic acid]
% displacement of the labeled ligand (1E-5M competing agent, 10 µM): 85% | % displacement of the labeled ligand (1E-7M competing agent, 0.1 µM): 27%

CCCc1nc(NC(C)=O)sc1Cc1ccc(NC(=O)c2ccccc2S(=O)(=O)O)cc1 [Example 36, 2-[4-(2-Acetamido-4-propylthiazol-5-yl-methyl)phenylaminocarbonyl]benzosulfonic acid]
% displacement of the labeled ligand (1E-5M competing agent, 10 µM): 84% | % displacement of the labeled ligand (1E-7M competing agent, 0.1 µM): 3%

CCCCCc1nc(C)sc1Cc1ccc(NC(=O)c2ccccc2S(=O)(=O)O)cc1 [Example 40, 2-[4-(2-methyl-4-pentylthiazol-5-ylmethyl)phenylaminocarbonyl]benzosulfonic acid]
% displacement of the labeled ligand (1E-5M competing agent, 10 µM): 88% | % displacement of the labeled ligand (1E-7M competing agent, 0.1 µM): 59%

CCCc1nc(N)sc1Cc1ccc(NC(=O)c2c(Cl)ccc(Cl)c2C(=O)O)cc1 [Example 41, 2-[4-(2-Amino-4-propylthiazol-5-ylmethyl)phenylaminocarbonyl]-3,6-dichlorobenzoic acid]
% displacement of the labeled ligand (1E-5M competing agent, 10 µM): 87% | % displacement of the labeled ligand (1E-7M competing agent, 0.1 µM): 9%

CCCCCc1nc(N)sc1Cc1ccc(NC(=O)c2ccccc2S(=O)(=O)O)cc1 [Example 44, 2-[4-(2-Amino-4-pentylthiazol-5-ylmethyl)phenylaminocarbonyl]benzosulfonic acid]
% displacement of the labeled ligand (1E-5M competing agent, 10 µM): 91% | % displacement of the labeled ligand (1E-7M competing agent, 0.1 µM): 44%
